This is an account of results in patent US4863918A, “Enamine quaternary compounds, methods of making and their use as muscle relaxants” (BOC, Inc., priority 1988, dated 1989).

The nature of data set [1]: Cardiovascular change (HR, BP) at equi-efficacious dose in rabbits. The data set is classed as in vivo. To be noted: rabbit.
In data set [2] the test system is paw twitch. As to the kind of experiment: Twitch depression (muscle relaxant effect) in anesthetized rabbits; rabbit paw twitch. The conditions noted are these: for ED90: Oryctolagus cuniculus, read-out: Equi-efficacious dose. The data set is classed as in vivo, New Zealand White rabbits. The protocol:
[The procedure below names another organism; the source lists this organism under the same test.] (§1) Mongrel dogs were injected with 50 mg/kg of pentobarbital until the onset of anesthesia as determined by the eyeblink reflex test. The injectable solutions prepared above were administered intravenously to the anesthesized mongrel dogs and measurements were made of the muscle relaxant effect including maximum twitch depression, onset, duration and recovery time in a clinically known manner. Each of the subjects were compared with a control animal receiving an injection of distilled water.
The same compound of the present invention as in
A number of compounds in accordance with the present invention were tested for their neuromuscular blockade Properties. Specifically, the acid addition salts of the compounds were dissolved in sterile water for injection.

In data set [3] the test system is paw twitch. Briefly: Twitch depression (muscle relaxant effect) in anesthetized dogs; dog paw twitch. To be noted: Table V; for ED90: Canis lupus familiaris, iv, read-out: Equi-efficacious dose; for ED90 / Equi-efficacious dose: dog paw twitch; for Duration (DURAT.) / Onset / Recovery (RECOV.): dog, at equi-efficacious dose. Format: in vivo, mongrel dogs. The protocol:
as §1

Data set [4] can be described thus: Cardiovascular change (HR, BP) at equi-efficacious dose in dogs. To be noted: dog. Format: in vivo.
In the next data set the test system is neuromuscular blockade. To be noted: background, in words; cited from earlier work.
Where [5] appears, read: Table IV, rabbit, at equi-efficacious dose.
Setting [6] is: Table V, at equi-efficacious dose.
Setting [7] is: Table IV, at equi-efficacious dose.
[8] abbreviates: Table VI, rabbit paw twitch, at indicated dose.
Where [9] appears, read: Table IV, rabbit, at equi-efficacious dose, depolarizer, based on twitch recovery not to-f.
The mark [10] stands for this setting: depolarizer, based on twitch recovery not to-f.

On to `COc1cc(CC2c3c(cc(OC)c(OC)c3OC)CC[N+]2(C)CCCOC(=O)CCC(=O)OCCC[N+]2(C)CCc3cc(OC)c(OC)c(OC)c3C2Cc2cc(OC)c(OC)c(OC)c2)cc(OC)c1OC` (centres unmarked) [BW938], for which, in data set [1] (in vivo), the BP % is -5.2% and the HR % is -3.8%. This molecule yielded an Equi-efficacious dose with paw twitch [2] (Table IV, rabbit paw twitch) of 0.010 mg/kg. In addition, in the data set with paw twitch [2] (setting [5]), the “Duration (DURAT.)” value was found to be 167.0 min, the Onset was determined as 282.4 s and the “Recovery (RECOV.)” value stood at 101.7 min.

As for `COc1cc2c(cc1OC)C(Cc1cc(OC)c(OC)c(OC)c1)[N+](C)(CCCOC(=O)CCC=CCCC(=O)OCCC[N+]1(C)CCc3cc(OC)c(OC)cc3C1Cc1cc(OC)c(OC)c(OC)c1)CC2` (centres unmarked) [BW1090], in the data set on paw twitch [3], the ED90 amounted to 0.39 mg/kg, the “Duration (DURAT.)” value was determined as 75.0 min, the Onset is 195.5 s and the “Recovery (RECOV.)” value is 70.3 min. In data set [4] (setting [6]), the BP % was -3.1% and the HR % came to 0.7%. Besides, in data set [1] (setting [7]), the BP % is 1.2% and the HR % is listed as -0.4%. The ED90 in the data set on paw twitch [2] (Table IV, rabbit paw twitch) amounted to 0.504 mg/kg. In the data set on paw twitch [2] (setting [5]), the “Duration (DURAT.)” value was determined as 8.7 min, the Onset amounted to 48.5 s and the “Recovery (RECOV.)” value was found to be 7.3 min.

On to `C[C@]12CC[C@@H]([N+]3(C)CCCC3)C[C@@H]1CC[C@@H]1[C@@H]2CC[C@@]2(C)[C@H]1CCC[N+]2(C)C.[Br-].[Br-]` [RGH-4201], for which, in the data set on paw twitch [3], the Equi-efficacious dose is 0.077 mg/kg, the “Duration (DURAT.)” value was 28.3 min, the Onset was 123.6 s and the “Recovery (RECOV.)” value was 22.0 min. Moreover, in data set [4] (in vivo), the BP % is recorded as 1.4% and the HR % is 11.3%. Also, in data set [1] (in vivo), the BP % came to 2.6% and the HR % was found to be 0.3%. Moreover, the Equi-efficacious dose with paw twitch [2] (Table IV, rabbit paw twitch) amounted to 0.070 mg/kg. In the data set with paw twitch [2] (setting [5]), the “Duration (DURAT.)” value turned out to be 7.7 min, the Onset came to 35.4 s and the “Recovery (RECOV.)” value was 6.1 min.

Take `COc1ccc(CC2c3cc(OC)c(OC)cc3CC[N+]2(C)CCC(=O)OCCCCCOC(=O)CC[N+]2(C)CCc3cc(OC)c(OC)cc3C2Cc2ccc(OC)c(OC)c2)cc1OC` (centres unmarked) [atracurium]: in the data set with paw twitch [3], the ED90 turned out to be 0.086 mg/kg, the “Duration (DURAT.)” value stood at 27.9 min, the Onset was found to be 159.4 s and the “Recovery (RECOV.)” value worked out at 20.4 min. In addition, in data set [4] (in vivo), the BP % turned out to be 0.3% and the HR % is recorded as 3.3%. In data set [1] (in vivo), the BP % is -3.4% and the HR % is recorded as -1.0%. For the same molecule, the ED90 in the data set on paw twitch [2] (Table IV, rabbit paw twitch) stood at 0.046 mg/kg. In the data set on paw twitch [2] (setting [5]), the “Duration (DURAT.)” value was 14.3 min, the Onset came out at 126.9 s and the “Recovery (RECOV.)” value is 12.2 min.

On to `CC[N+](CC)=C1C=C(N2CCC3(CC2)OCC2(CO3)COC3(CCN(C4=CC(=[N+](CC)CC)CC(C)C4)CC3)OC2)CC(C)C1` (centres unmarked) [compound 54], for which, in the data set with paw twitch [2] (setting [8]), the Onset amounted to 51 s.

In the case of `CCC[N+](CC1CC1)=C1C=C(N2CCC3(CC2)OCC2(CO3)COC3(CCN(C4=CC(=[N+](CCC)CC5CC5)CC(C)C4)CC3)OC2)CC(C)C1` (centres unmarked) [compound 56], the Onset with paw twitch [2] (setting [8]) amounted to 62.3 s.

On to `COc1cc2c3cc1Oc1cc(ccc1O)C[C@@H]1c4c(cc(OC)c(O)c4Oc4ccc(cc4)C[C@@H]3N(C)CC2)CC[N+]1(C)C` [d-tubocurarine], for which, in the data set with paw twitch [3], the Equi-efficacious dose is 0.254 mg/kg, the “Duration (DURAT.)” value is 60.0 min, the Onset is 150.8 s and the “Recovery (RECOV.)” value worked out at 55.3 min. For the same molecule, in data set [4] (setting [6]), the BP % was -25.8% and the HR % is reported as 8.7%. Further, in data set [1] (setting [7]), the BP % stood at 4.8% and the HR % is on record as -0.3%. For the same molecule, the Equi-efficacious dose in the data set on paw twitch [2] (Table IV, rabbit paw twitch) was 0.229 mg/kg. In the data set with paw twitch [2] (setting [5]), the “Duration (DURAT.)” value was determined as 37.3 min, the Onset stood at 85.0 s and the “Recovery (RECOV.)” value was found to be 34.8 min. For the same molecule, the “duration of paralysis and recovery” value in the data set on neuromuscular blockade was “maintain paralysis for an undesirably long time and the recovery period is slow”.

For `C[N+](C)(C)CCCCCCCCCC[N+](C)(C)C` [decamethonium], in data set [1] (setting [7]), the BP % is given as -2.6% and the HR % is recorded as -2.8%. Moreover, the ED90 with paw twitch [2] (Table IV, rabbit paw twitch) came to 0.165 mg/kg. Moreover, the Onset in the data set on paw twitch [2] (setting [5]) worked out at 104.0 s. For the same molecule, in the data set on paw twitch [2] (setting [9]), the “Duration (DURAT.)” value is 41.7 min and the “Recovery (RECOV.)” value worked out at 41.7 min.

As to `COc1ccc2cc1Oc1cc3c(cc1OC)CC[N+](C)(C)[C@H]3Cc1ccc(cc1)Oc1c(OC)c(OC)cc3c1[C@@H](C2)[N+](C)(C)CC3` [metocurine], in data set [1] (setting [7]), the BP % is -1.6% and the HR % was 0.2%. Moreover, the ED90 with paw twitch [2] (Table IV, rabbit paw twitch) was determined as 0.025 mg/kg. For the same molecule, in the data set with paw twitch [2] (setting [5]), the “Duration (DURAT.)” value turned out to be 37.8 min, the Onset was 72.4 s and the “Recovery (RECOV.)” value was determined as 34.9 min.

For the molecule `CC(=O)O[C@H]1C[C@@H]2CC[C@@H]3[C@H](CC[C@@]4(C)[C@H]3C[C@H]([N+]3(C)CCCCC3)[C@@H]4OC(C)=O)[C@@]2(C)C[C@@H]1[N+]1(C)CCCCC1` [pancuronium], in the data set with paw twitch [3], the ED90 came out at 0.013 mg/kg, the “Duration (DURAT.)” value amounted to 45.7 min, the Onset was 169.0 s and the “Recovery (RECOV.)” value turned out to be 35.6 min. Besides, in data set [4] (setting [6]), the BP % is -1.8% and the HR % worked out at 0.2%. Further, in data set [1] (setting [7]), the BP % was found to be 2.7% and the HR % stood at 0.0%. For the same molecule, the ED90 in the data set on paw twitch [2] (Table IV, rabbit paw twitch) came to 0.022 mg/kg. Also, in the data set on paw twitch [2] (setting [5]), the “Duration (DURAT.)” value was 32.5 min, the Onset amounted to 147.5 s and the “Recovery (RECOV.)” value amounted to 17.4 min. The “duration of paralysis and recovery” value with neuromuscular blockade was “maintain paralysis for an undesirably long time and the recovery period is slow”.

In the case of `C[N+](C)(C)CCOC(=O)CCC(=O)OCC[N+](C)(C)C` [succinylcholine], the ED90 amounted to 0.043 mg/kg in the data set on paw twitch [3] and 0.447 mg/kg in the data set with paw twitch [2] (Table IV, rabbit paw twitch). For the same molecule, the Onset stood at 98.9 s with paw twitch [3] and 39.4 s in the data set on paw twitch [2] (setting [5]). Further, the figures for the “Duration (DURAT.)” value in the data set with paw twitch [3] (setting [10]) and in the data set with paw twitch [2] (setting [9]) were 8.8 min and 18.6 min, respectively. Also, the “Recovery (RECOV.)” value in the data set with paw twitch [3] (setting [10]) was found to be 5.4 min; with paw twitch [2] (setting [9]) it was 18.6 min. Moreover, the BP % in data set [4] (setting [6]) is reported as 25.7%; in data set [1] (setting [7]) it was -4.1%. For the same molecule, the HR % is 34.9% in data set [4] (setting [6]) and 0.2% in data set [1] (setting [7]). Also, the “reversibility by anticholinesterase drugs” value with neuromuscular blockade is recorded as “not easily reversed by anticholinesterase drugs”.

For the molecule `CC(=O)O[C@H]1C[C@@H]2CC[C@@H]3[C@H](CC[C@@]4(C)[C@H]3C[C@H]([N+]3(C)CCCCC3)[C@@H]4OC(C)=O)[C@@]2(C)C[C@@H]1N1CCCCC1` [vecuronium], in the data set with paw twitch [3], the ED90 was 0.019 mg/kg, the “Duration (DURAT.)” value worked out at 26.6 min, the Onset came to 171.0 s and the “Recovery (RECOV.)” value was determined as 21.8 min. Further, in data set [4] (setting [6]), the BP % is listed as 2.3% and the HR % was determined as 3.5%. Besides, in data set [1] (setting [7]), the BP % worked out at 1.1% and the HR % is -1.9%. Also, the ED90 in the data set on paw twitch [2] (Table IV, rabbit paw twitch) is 0.019 mg/kg. For the same molecule, in the data set with paw twitch [2] (setting [5]), the “Duration (DURAT.)” value turned out to be 16.8 min, the Onset amounted to 97.3 s and the “Recovery (RECOV.)” value stood at 9.6 min.

Turning to descuronium, in data set [1] (in vivo), the BP % is -7.6% and the HR % is on record as -4.1%. Besides, the Equi-efficacious dose in the data set with paw twitch [2] (Table IV, rabbit paw twitch) turned out to be 0.053 mg/kg. In addition, in the data set with paw twitch [2] (setting [5]), the “Duration (DURAT.)” value was 21.5 min, the Onset was 129.4 s and the “Recovery (RECOV.)” value was 13.1 min.
